According to ChEMBL document CHEMBL1126037, “4'-modified analogues of aristeromycin and neplanocin A: synthesis and inhibitory activity toward S-adenosyl-L-homocysteine hydrolase” (J Med Chem, 1992):
The source made the active and inactive calls. No cut-off for these calls is given here.

What was measured:
[1] = system: Adenosylhomocysteinase (Bos taurus)
[2] = target: Adenosylhomocysteinase (Homo sapiens) (UniProt P23526); conditions: Bos taurus
Description: Kinetic constant against bovine liver S-adenosyl-L-homocysteine hydrolase (AdoHcy); reversibleinhibitor

[3] = target: Adenosylhomocysteinase (Homo sapiens) (UniProt P23526); conditions: Bos taurus; remark: listed apart in the source
[4] = system: Adenosylhomocysteinase (Bos taurus); experiment: Kinetic constant against bovine liver S-adenosyl-L-homocysteine hydrolase (AdoHcy); c = Inactive up to 100 uM
[5] = system: Adenosylhomocysteinase (Bos taurus); experiment: Inhibitory activity against bovine liver S-adenosyl-L-homocysteine hydrolase (AdoHcy); c = Inactive up to 100 uM

Adenosylhomocysteinase (Homo sapiens), sequence (P23526 2-432 limits assumed): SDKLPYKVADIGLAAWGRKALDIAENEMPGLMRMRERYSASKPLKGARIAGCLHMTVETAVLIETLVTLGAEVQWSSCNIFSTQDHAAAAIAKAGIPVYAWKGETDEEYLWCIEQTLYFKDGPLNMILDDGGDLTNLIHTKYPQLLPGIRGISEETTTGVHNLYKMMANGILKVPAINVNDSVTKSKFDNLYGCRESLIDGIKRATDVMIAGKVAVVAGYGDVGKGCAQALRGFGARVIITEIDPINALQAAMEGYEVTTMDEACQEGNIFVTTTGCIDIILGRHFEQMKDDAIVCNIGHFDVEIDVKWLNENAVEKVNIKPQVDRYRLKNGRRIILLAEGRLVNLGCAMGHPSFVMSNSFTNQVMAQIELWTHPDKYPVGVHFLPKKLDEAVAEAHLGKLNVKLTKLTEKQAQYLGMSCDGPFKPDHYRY

| SMILES | k2 [1] | further results |
| --- | --- | --- |
| Nc1ncnc2c1ncn2[C@@H]1C=C[C@@H](O)[C@H]1O | 0.043 min⁻¹ |  |
| Nc1ncnc2c1ncn2[C@@H]1C[C@H](CO)[C@@H](O)[C@H]1O |  | k2 [2]: Reversible inhibition |
| Nc1ncnc2c1ncn2[C@@H]1C=C(CO)[C@@H](O)[C@H]1O |  | k2 [3]: 1.98 min⁻¹ |
| C[C@@H]1C[C@@H](n2cnc3c(N)ncnc32)[C@H](O)[C@@H]1O | 0.025 min⁻¹ |  |
| Nc1ncnc2c1ncn2[C@@H]1C[C@H](c2ccccc2)[C@@H](O)[C@H]1O | 0.01 min⁻¹ |  |
| C=C[C@H]1C[C@@H](n2cnc3c(N)ncnc32)[C@H](O)[C@@H]1O | 0.053 min⁻¹ |  |
| Nc1ncnc2c1ncn2[C@@H]1CC[C@@H](O)[C@H]1O | 0.109 min⁻¹ |  |
| CC1=C[C@@H](n2cnc3c(N)ncnc32)[C@H](O)[C@@H]1O | 0.09 min⁻¹ |  |
| C[C@H]1C[C@@H](n2cnc3c(N)ncnc32)[C@H](O)[C@@H]1O | 0.039 min⁻¹ |  |
| CCC1=C[C@@H](n2cnc3c(N)ncnc32)[C@H](O)[C@@H]1O |  | k2 [4]: inactive; Ki [5]: Inactive |
| CC[C@H]1C[C@@H](n2cnc3c(N)ncnc32)[C@H](O)[C@@H]1O | 0.083 min⁻¹ |  |
